Patent publication US12534707B2, “Method for generating cardiac tissue mimetics” (GENOME BIOLOGICS UG, priority 2019, dated 2026)
Entries after “also recorded” stand apart in the source; their conditions may differ.

B1: TGF β2: transforming growth factor β2 (R&D Systems; 302-B2), inducer of endothelial-mesenchymal transition and cardiac fibrosis (protein, UniProt P61812 303-414, looked up)
Transforming growth factor …: ALDAAYCFRNVQDNCCLRPLYIDFKRDLGWKWIHEPKGYNANFCAGACPYLWSSDTQHSRVLSLYNTINPEASASPCCVSQDLEPLTILYYIGKTPKIEQLSNMIVKSCKCS

Legend:
[1] = system: cardiac tissue mimetics (CTMs); experiment: CTM vascularisation (GFP-HUVEC sprout length, thickness, branch points); type: cell-based, rat, human; details: 200 μM PE with 1 μM Propranolol or 50 μM Metoprolol, 10 days, vs 0.1% DMSO; FIGS. 21, 22
HUVEC spheroids = experiment: Spheroid-based angiogenic sprouting assay; type: cell-based, human; details: for endothelial sprouting of HUVEC spheroids with supernatants of CM cultured with PE plus β-blocker: neonatal rat CM 72 hours with 200 μM PE + 1 μM Propranolol or 50 μM Metoprolol, vs PE alone, FIG. 25
Experimental: After 72 hours, cell culture supernatants were centrifuged (500×g, 5 minutes) to deplete dead cells and stored at −80° C.
Endothelial cell sprouting was studied by in vitro spheroid-based angiogenesis assays. In brief, HUVECs were trypsinized and transferred into a mixture of fully supplemented EBM™ and methylcellulose (80%:20%). […] After 24 hours, spheroids were collected, pelleted (200×g, 3 minuted), resuspended in methylcellulose supplemented with FCS (80%:20%) and embedded in a collagen Type-I gel (Corning; 354236). HUVEC spheroids were then either cultured with fully supplemented EBM (+/−VEGF (50 ng/mL; BioLegend; 583702) or +/−PE (200 μM)), maintenance medium or conditioned cell culture medium.

HUVEC = experiment: Tube formation assay; type: cell-based, human; details: 1 μM Propranolol or 50 μM Metoprolol, 24 hours on Matrigel, vs Ctrl. and 0.1% DMSO; FIGS. 23, 24
Experimental: Tube formation assay was performed as previously described (J. U. G. Wagner, E. Chavakis, E. M. Rogg, M. Muhly-Reinholz, S. F. Glaser, S. Gunther, D. John, F. Bonini, A. M. Zeiher, L. Schaefer, M. J. Hannocks, R. A. Boon, S. Dimmeler, 2018, Arterioscler Thromb Vasc Biol 38(5), 1170-1177). Briefly, in vitro tube formation was performed with 2×10^4 HUVECs cultured in 100 μL of fully supplemented EBM™ in 96-well plates (Greiner Bio-One GmbH) that had been coated with 100 μL Matrigel® (Corning; 356234).

[2] = system: cardiac tissue mimetics (CTMs); experiment: Contractility measurement of CTMs (spontaneous beats per minute; pacing at 1 Hz and 15 V); details: 200 μM PE with 1 μM Propranolol or 50 μM Metoprolol, 10 days, vs PE + 0.1% DMSO; FIG. 20
[3] = system: cardiac tissue mimetics (CTMs); experiment: CTM size measurement; details: 200 μM PE + 1 μM Propranolol / 50 μM Metoprolol vs PE + 0.1% DMSO; FIG. 39
mature CTMs = experiment: Injury assay on mature CTMs (immunofluorescence, SHG, Sirius red); type: cell-based, rat, human
Experimental: In case of whole mount stainings, CTMs were permeabilized with 0.2% Triton® X-100 in PBS for 1 hour at room temperature followed by blocking with 5% horse serum (Sigma-Aldrich) in PBS for 30 minutes at room temperature. Primary antibodies (see Table 1) were diluted 1:200 in 5% horse serum and incubated over night at 4° C. Before using the secondary antibody (see table below), CTMs were washed three times with PBS containing 1% Tween 20 and 0.002% Triton® X-100 (referred as PBT from here after) for 20 minutes at room temperature. Secondary antibodies (1:500) and DAPI (1:1000; Carl-Roth GmbH & Co. KG) were diluted in 5% horse serum together and incubated for 4 hours at room temperature in the dark. […] Cryo-sections were prepared by embedding fixed spheroids in O.C.T medium (Tissue-Tek), snap-freezing them in liquid nitrogen and cutting them in 10 μm thick sections. Sections were permeabilized and blocked for one hour in 0.1% Triton® X100 (in PBS+BSA). Primary antibody incubated with the sections diluted 1:50-1:100 in 1 mM MgCl2, 1 mM CaCl2, 0.1 mM MnCl2, 1% Triton® X-100 or 0.2% saponin over night at 4° C. The next day, sections were washed trice with 0.1% Triton® X100/PBS or 0.2 saponin (five minutes each) and incubated with the secondary antibody diluted 1:200 in 0.1% Triton® X100 or 0.2% saponin (in PBS) for one hour at room temperature in the dark. Finally, sections were washed again trice with 0.1% Triton® X100/PBS or 0.2% saponin and mounted with mounting medium containing DAPI or Hoechst 33342. Endothelial cells were stained with Isolectin B4.
The second-harmonics generation imaging was performed on an upright spectral multiphoton microscope (Leica TCS SP8 DIVE, non-descanned spectral detectors, objective HC IRAPO L 25×/1.00 W) using 10 μm thick CTM sections. A 1045 nm laser was used for SHG and the signal was detected with a PMT and a detection window from 517 nm to 527 nm. A second detection window was used to record autofluorescence for comparison (552 nm to 565 nm).
Sirius red staining was used to determine collagen deposition and fibrosis in paraffin sections of young versus aged mice hearts. In a first step, the paraffin sections were deparaffinised with xylene (twice 10 minutes) and an ethanol series of 100%, 95%, 80%, 70% and 50% ethanol (5 minutes each step), before washing the sections with water and PBS (5 minutes each step). In a second step, a 0.1% Picrosirius Red solution was prepared by solving 0.5 g Sirius Red (Waldeck GmbH) in 500 mL picric acid (Sigma-Aldrich) that incubated with the deparaffinised sections for 1 hour. After washing two times with acidified water, the sections were dehydrated with 100% ethanol, cleared with xylene and mounted with Pertex (Medite) […]

| Molecule | angiogenic sprouting in PE-treated CTMs [1] | endothelial sprouting of HUVEC spheroids with supernatants of CM cultured with PE plus β-blocker (HUVEC spheroids) | direct effect on HUVEC tube formation (accumulated tube length) (HUVEC) | frequency of CTM contraction (beats per minute) [2] | PE-induced hypertrophic growth (CTM size, fold change) [3] | EC spheroid growth / vascular network growth and branching (cumulative sprout length), direct treatment (HUVEC spheroids) | endothelial-mesenchymal transition (ECs expressing vimentin, SM22α, collagen III) (mature CTMs; mature CTMs treated 3 days with TGF β2, FIGS. 32, 40) | cardiac fibroblast activation (vimentin staining) (mature CTMs; mature CTMs with or without TGF β2, FIG. 28) | CTM vascularization (angiogenic sprouting) (mature CTMs; mature CTMs, 200 μM PE + 10 ng/mL TGF β2, 3 days, vs PE, FIGS. 26, 27) | collagen deposition (SHG, Sirius Red staining) (mature CTMs; mature CTMs, PE + 10 ng/mL TGF β2, 3 days, FIGS. 29-31) |
| --- | --- | --- | --- | --- | --- | --- | --- | --- | --- | --- |
| COCCc1ccc(OCC(O)CNC(C)C)cc1 (centres unmarked) [Metoprolol] | significant decrease | no significant alterations | no differences; also recorded: could not be detected | significantly decreased; also recorded: reduced |  |  |  |  |  |  |
| CC(C)NCC(O)COc1cccc2ccccc12 (centres unmarked) [Propranolol] | significant decrease | no significant alterations | no differences; also recorded: could not be detected | significantly decreased; also recorded: reduced | diminished |  |  |  |  |  |
| VEGF |  |  |  |  |  | significantly increased |  |  |  |  |
| B1 |  |  |  |  |  |  | occurs; also recorded: single ECs expressing vimentin were found | evidence of cardiac fibroblast activation | slightly increased; also recorded: failed to reach significance | induced; also recorded: augments |
